Molecular target: T1, small-conductance Ca2+-activated K+ channels (SK channels, subtype 2) (Homo sapiens, UniProt Q9H2S1)
T1 construct: expressed in transfected cells; host or cells: HEK293
Experiment: whole-cell patch-clamp of ionic current through SK2 channels in HEK293 cells (SC100)
Format: cell-based
Conditions: concentration that increases the basal current by 100%; HEK293 cells expressing SK2 channels
Method: The biological activity was determined as follows. The ionic current through small-conductance Ca^2+-activated K^+ channels (SK channels, subtype 2) was measured using the whole-cell configuration of the patch-clamp technique in a patch-clamp set-up using HEK293 tissue culture cells expressing SK2 channels as described in Hougaard et al., British Journal of Pharmacology 151, 655-665, May 8, 2007, the entire teachings of which are incorporated herein by reference. In one aspect, a compound is defined to be an SK PAM if the compound increases current in this assay, for example, if the SC100 value of the compound is less than or equal to 10 μM as determined by this assay. The SC100 value is defined to be the concentration of compound that increases the basal current by 100%.

SC100 | Compound
++ (++ means 200 nM-1000 nM) | Cc1cc(C)n(-c2nc(NC3CCC(F)(F)CC3)cc(C(F)(F)F)n2)n1 [Compound 162, N-(4,4-difluorocyclohexyl)-2-(3,5-dimethyl-1H-pyrazol-1-yl)-6-(trifluoromethyl)pyrimidin-4-amine]
+ (+ means >1 uM) | Cc1cc(C)n(-c2nc(NC3CCC(F)(F)CC3)cc([C@@H](C)O)n2)n1 (single isomer, unassigned) [Compound 198, (−)1-(6-((4,4-difluorocyclohexyl)amino)-2-(3,5-dimethyl-1H-pyrazol-1-yl)pyrimidin-4-yl)ethan-1-ol]
++ (++ means 200 nM-1000 nM) | CC(=O)N1CC(Oc2cc(NC3CCC(F)(F)CC3)nc(-n3ccc(CF)n3)n2)C1 [Compound 289, 1-(3-((6-((4,4-difluorocyclohexyl)amino)-2-(3-(fluoromethyl)-1H-pyrazol-1-yl)pyrimidin-4-yl)oxy)azetidin-1-yl)ethan-1-one]
++ (++ means 200 nM-1000 nM) | Cc1cc(C)n(-c2cc(OCc3cn(C)nn3)cc(NC3CCC(F)(F)CC3)n2)n1 [Compound 244, N-(4,4-difluorocyclohexyl)-6-(3,5-dimethyl-1H-pyrazol-1-yl)-4-((l-methyl-1H-1,2,3-triazol-4-yl)methoxy)pyridin-2-amine]
+ (+ means >1 uM) | Cc1cc(C)n(-c2cc(NC(C)C(N)=O)nc(NC3CCC(F)(F)CC3)n2)n1 (stereo not drawn) [Compound 107, 2-((2-((4,4-difluorocyclohexyl)amino)-6-(3,5-dimethyl-1H-pyrazol-1-yl)pyrimidin-4-yl)amino)propanamide]

Same assay, conditions: whole-cell patch-clamp, HEK293 cells expressing SK2 channels; concentration that increases the basal current by 100%

SC100 (μM) | Compound
+ (+ means >1 uM) | COC(=O)N1CC(Oc2cc(NC3CCCCC3)nc(-c3nccs3)n2)C1 [NSSy6166, methyl 3-((6-(cyclohexylamino)-2-(thiazol-2-yl)pyrimidin-4-yl)oxy) azetidine-1-carboxylate]
++ (++ means 200 nM-1000 nM) | Cc1cc(-n2nc(C)cc2C)nc(NC2CCC(F)(F)CC2)n1 [NSSy6593]
++ (++ means 200 nM-1000 nM) | COC1CCCN(c2cc(NC3CCC(F)(F)CC3)nc(-c3nc(C)cs3)n2)C1 (stereo not drawn) [IN10876-013-P1]
++ (++ means 200 nM-1000 nM) | Cc1cn(CCOc2cc(NC3CCC(F)(F)CC3)nc(-n3ccc(C)n3)c2)nn1 [NSSy6849]
+ (+ means >1 uM) | COC(=O)N1CC(Oc2cc(NC3CCC(F)(F)CC3)nc(-c3nc(C)no3)c2)C1 [NSSy5959]
+ (+ means >1 uM) | Cc1cc(NC2CCC(F)(F)CC2)nc(Cn2ccc(C)n2)n1 [IN11273-015-P1, N-(4,4-difluorocyclohexyl)-6-methyl-2-((3-methyl-1H-pyrazol-1-yl)methyl)pyrimidin-4-amine]
++ (++ means 200 nM-1000 nM) | COC[C@@H]1CN(c2cc(NC3CCC(F)(F)CC3)nc(-c3nc(C)cs3)n2)CCO1 [NSSy5795]
+ (+ means >1 uM) | Cc1cc(C)n(-c2cc(N3CC4(COC4)C3)nc(NC3CCC(F)CC3)n2)n1 (stereo not drawn) [NSSy6471, 4-(3,5-dimethyl-1H-pyrazol-1-yl)-N-(4-fluorocyclohexyl)-6-(2-oxa-6-azaspiro[3.3]heptan-6-yl)pyrimidin-2-amine]
+ (+ means >1 uM) | Cc1cc(CN2CCC(F)(F)CC2)cc(-c2nc(C)cs2)c1 [NSSy6044, 2-(3-((4,4-difluoropiperidin-1-yl)methyl)-5-methylphenyl)-4-methyl thiazole]
++ (++ means 200 nM-1000 nM) | Cc1ccn(-c2nc(NCCO)cc(NC3CCC(F)(F)CC3)n2)n1 [IN11250-032-P1]
++ (++ means 200 nM-1000 nM) | C=Cc1cc(NC2CCC(F)(F)CC2)nc(-n2ccc(C)n2)n1 [IN11053-052-P1]
+ (+ means >1 uM) | COC(C)c1cc(-n2ccc(C(F)(F)F)n2)nc(NC2CCC(F)(F)CC2)n1 (stereo not drawn) [NSSy6613]

Compound | SC100 (μM)
Cc1ccn(-c2nc(NC3CCC(F)(F)CC3)cc(C(C)O)n2)n1 (stereo not drawn) [IN10876-051-P1] | + (+ means >1 uM)

Reference: patent US10774064B2 (Cadent Therapeutics, Inc., priority 2016, dated 2020)
